Experimental data as given in patent publication US8304447B2, “2-acylaminopropoanol-type glucosylceramide synthase inhibitors” (Genzyme Corporation, priority 2007, dated 2012).

Tested on: GM3
Test: GM3 Elisa assay
Format: cell-based
Settings: Table 3 (IC 50 Values); B16-FO cells; read-out: IC50_uM_Mean
How it was run: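 Murine B16-FO melanoma cells attached 6 h on collagen, then exposed to compounds for 2 days at 37 °C. After formaldehyde fixation, cell-surface GM3 (NeuAc) was detected by anti-GM3 IgM and peroxidase anti-mouse IgM with Quantablu fluorescence (Ex 325/Em 420).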

In the case of `COc1ccc(C(=O)CCCCCC(=O)N[C@H](CN2C3CCC2CC3)[C@H](O)c2ccc(OC(C)C)cc2)cc1` [Compound 377], the IC50 is reported as ≤ 100 nM.
In the case of `COc1ccc(C(=O)CCC(=O)CCC(=O)N[C@H](CN2CCCC2)[C@H](O)c2ccc3c(c2)OCCO3)cc1` [Compound 378], the IC50 is reported as ≤ 100 nM.
Molecule `O=C(N[C@H](CN1CCCC1)[C@H](O)c1ccc(Cl)cc1)OCc1ccccc1` [Compound 379] has an IC50 of 100 to 1000 nM.
With `COc1ccc(C(=O)CCCCCC(=O)N[C@H](CN2CCCC2)[C@H](O)c2ccc(Cl)cc2)cc1` [Compound 380] the IC50 was ≤ 100 nM.
`O=C(Cc1ccc(OC(F)(F)F)cc1)N[C@H](CN1CCCC1)[C@H](O)c1ccc(Cl)cc1` [Compound 381] was tested, and the IC50 was 1000 to 3000 nM.
`COc1ccc(OCCC(=O)N[C@H](CN2CCCC2)[C@H](O)c2ccc(Cl)cc2)cc1` [Compound 382] showed an IC50 of 100 to 1000 nM.
Work on `COc1ccc(C(=O)CCCC(=O)N[C@H](CN2CCCC2)[C@H](O)c2ccc(Cl)cc2)cc1` [Compound 383] yielded an IC50 of 100 to 1000 nM.
For `COc1ccc(C(=O)CCCCC(=O)N[C@H](CN2CCCC2)[C@H](O)c2ccc(Cl)cc2)cc1` [Compound 384], the IC50 was 100 to 1000 nM.
In the case of `CCCCCCCC(=O)N[C@H](CN1CCCC1)[C@H](O)c1ccc(Cl)cc1` [Compound 385], the IC50 is reported as 1000 to 3000 nM.
For `COc1ccc(C(=O)CCCC(=O)N[C@H](CN2CCCC2)[C@H](O)c2ccc(OC)c(C)c2)cc1` [Compound 386], the IC50 was 100 to 1000 nM.
For `COc1ccc(C(=O)CCCCC(=O)N[C@H](CN2CCCC2)[C@H](O)c2ccc(OC)c(C)c2)cc1` [Compound 387], the IC50 was 100 to 1000 nM.
With `CCCCCCCC(=O)N[C@H](CN1CCCC1)[C@H](O)c1ccc(OC)c(C)c1` [Compound 388] the IC50 was ≤ 100 nM.
For `COc1ccc([C@@H](O)[C@@H](CN2CCCC2)NC(=O)Cc2ccc(OC(F)(F)F)cc2)cc1C` [Compound 389], the IC50 was ≤ 100 nM.
For `COc1ccc(C(=O)CCCCCC(=O)N[C@H](CN2CCCC2)[C@H](O)c2ccc(OC)c(C)c2)cc1` [Compound 390], the IC50 was ≤ 100 nM.
Work on `COc1ccc(OCCC(=O)N[C@H](CN2CCCC2)[C@H](O)c2ccc(OC)c(C)c2)cc1` [Compound 391] yielded an IC50 of 100 to 1000 nM.
`O=C(Cc1ccc(OC(F)(F)F)cc1)N[C@H](CN1CCCC1)[C@H](O)/C=C/c1ccccc1` [Compound 392] showed an IC50 of 3000 to 10000 nM.
In the case of `COc1ccc(C(=O)CCCC(=O)N[C@H](CN2CCCC2)[C@H](O)/C=C/c2ccccc2)cc1` [Compound 393], the IC50 is reported as 3000 to 10000 nM.
In the case of `COc1ccc(C(=O)CCCCCC(=O)N[C@H](CN2CCCC2)[C@H](O)/C=C/c2ccccc2)cc1` [Compound 394], the IC50 is reported as 1000 to 3000 nM.
With `COc1ccc(C(=O)CCCCC(=O)N[C@H](CN2CCCC2)[C@H](O)/C=C/c2ccccc2)cc1` [Compound 395] the IC50 was 3000 to 10000 nM.
`COc1ccc(OCCC(=O)N[C@H](CN2CCCC2)[C@H](O)/C=C/c2ccccc2)cc1` [Compound 396] showed an IC50 of 3000 to 10000 nM.
In the case of `CCCCCCCC(=O)N[C@H](CN1CCCC1)[C@H](O)/C=C/c1ccccc1` [Compound 397], the IC50 is reported as 3000 to 10000 nM.
With `O=C(Cc1ccc(OC(F)(F)F)cc1)N[C@H](CN1CCCC1)[C@H](O)c1ccc2c(c1)OC(F)(F)C(F)(F)O2` [Compound 398] the IC50 was 3000 to 10000 nM.
`O=C(N[C@H](CN1CCCC1)[C@H](O)c1ccc2c(c1)OC(F)(F)C(F)(F)O2)OCc1ccccc1` [Compound 399] was tested, and the IC50 was 1000 to 3000 nM.
Work on `CCCCCCCC(=O)N[C@H](CN1CCCC1)[C@H](O)c1ccc2c(c1)OC(F)(F)C(F)(F)O2` [Compound 400] yielded an IC50 of 3000 to 10000 nM.
With `COc1ccc(C(=O)CCCCCC(=O)N[C@H](CN2CCCC2)[C@H](O)c2ccc3c(c2)OC(F)(F)C(F)(F)O3)cc1` [Compound 401] the IC50 was 100 to 1000 nM.
For `COc1ccc(OCCC(=O)N[C@H](CN2CCCC2)[C@H](O)c2ccc3c(c2)OC(F)(F)C(F)(F)O3)cc1` [Compound 402], the IC50 was 3000 to 10000 nM.
For `COc1ccc(C(=O)CCCCC(=O)N[C@H](CN2CCCC2)[C@H](O)c2ccc3c(c2)OC(F)(F)C(F)(F)O3)cc1` [Compound 403], the IC50 was 1000 to 3000 nM.
Work on `O=C(N[C@H](CN1CCCC1)[C@H](O)c1ccc2c(c1)OC(F)(F)O2)OCc1ccccc1` [Compound 404] yielded an IC50 of 3000 to 10000 nM.
`COc1ccc(C(=O)CCCC(=O)N[C@H](CN2CCCC2)[C@H](O)c2ccc3c(c2)OC(F)(F)O3)cc1` [Compound 405] was tested, and the IC50 was 1000 to 3000 nM.
Work on `O=C(N[C@H](CO)[C@H](O)c1ccc2c(c1)OC(F)(F)O2)OCc1ccccc1` [Compound 406] yielded an IC50 of 3000 to 10000 nM.
Work on `COc1ccc(OCCC(=O)N[C@H](CN2CCCC2)[C@H](O)c2ccc3c(c2)OC(F)(F)O3)cc1` [Compound 407] yielded an IC50 of 1000 to 3000 nM.
Molecule `COc1ccc(C(=O)CCCCC(=O)N[C@H](CN2CCCC2)[C@H](O)c2ccc3c(c2)OC(F)(F)O3)cc1` [Compound 408] has an IC50 of 1000 to 3000 nM.
`COc1ccc(C(=O)CCCCCC(=O)N[C@H](CN2CCCC2)[C@H](O)c2ccc3c(c2)OC(F)(F)O3)cc1` [Compound 409] showed an IC50 of 100 to 1000 nM.
In the case of `O=C(Cc1ccc(OC(F)(F)F)cc1)N[C@H](CN1CCCC1)[C@H](O)c1ccc2c(c1)OC(F)(F)O2` [Compound 410], the IC50 is reported as 3000 to 10000 nM.
For `CCCCCCCC(=O)N[C@H](CN1CCCC1)[C@H](O)c1ccc2c(c1)OC(F)(F)O2` [Compound 411], the IC50 was 3000 to 10000 nM.
`CCCCOc1ccc([C@@H](O)[C@@H](CN2CCCC2)NC(=O)CCOc2ccc(OC)cc2)cc1` [Compound 412] was tested, and the IC50 was ≤ 100 nM.
For `CCCCCCOc1ccc([C@@H](O)[C@@H](CN2CCCC2)NC(=O)CCOc2ccc(OC)cc2)cc1` [Compound 413], the IC50 was ≤ 100 nM.
Work on `COc1ccc(C(=O)CCCCC(=O)N[C@H](CN2CCCC2)[C@H](O)c2ccc(O)cc2)cc1` [Compound 414] yielded an IC50 of 100 to 1000 nM.
With `COCCOCCOc1ccc([C@@H](O)[C@@H](CN2CCCC2)NC(=O)CCCCC(=O)c2ccc(OC)cc2)cc1` [Compound 415] the IC50 was 100 to 1000 nM.
For `COc1ccc(OCCOc2ccc([C@@H](O)C(CN3CCCC3)NC(=O)CCCCC(=O)c3ccc(OC)cc3)cc2)cc1` (stereo partly shown) [Compound 416], the IC50 was ≤ 100 nM.
With `COCCOc1ccc([C@@H](O)[C@@H](CN2CCCC2)NC(=O)CCCCC(=O)c2ccc(OC)cc2)cc1` [Compound 417] the IC50 was ≤ 100 nM.
`COc1ccc(C(=O)CCCCC(=O)N[C@H](CN2CCCC2)[C@H](O)c2ccc(OCCOc3ccccc3)cc2)cc1` [Compound 418] was tested, and the IC50 was ≤ 100 nM.
In the case of `COc1ccc(C(=O)CCCCC(=O)N[C@H](CN2CCCC2)[C@H](O)c2ccc(OCCC3CCCCC3)cc2)cc1` [Compound 419], the IC50 is reported as ≤ 100 nM.
For `COc1ccc(C(=O)CCCCC(=O)N[C@H](CN2CCCC2)[C@H](O)c2ccc(OCC3CCCCC3)cc2)cc1` [Compound 420], the IC50 was ≤ 100 nM.
`COc1ccc(C(=O)CCCCC(=O)N[C@H](CN2CCCC2)[C@H](O)c2ccc(OCC3CCC3)cc2)cc1` [Compound 421] was tested, and the IC50 was ≤ 100 nM.
In the case of `COc1ccc(C(=O)CCCCC(=O)N(Cc2ccccn2)[C@H](CN2CCCC2)[C@H](O)c2ccc(O)cc2)cc1` [Compound 422], the IC50 is reported as 3000 to 10000 nM.
In the case of `COCCOc1ccc([C@@H](O)[C@@H](CN2CCCC2)N(CCOC)C(=O)CCCCC(=O)c2ccc(OC)cc2)cc1` [Compound 423], the IC50 is reported as 1000 to 3000 nM.
Molecule `COc1ccc(C(=O)CCCCC(=O)N(CC(=O)c2ccc(OC)cc2)[C@H](CN2CCCC2)[C@H](O)c2ccc(O)cc2)cc1` [Compound 424] has an IC50 of 3000 to 10000 nM.
In the case of `COc1ccc(C(=O)CCCCC(=O)N(Cc2cccnc2)[C@H](CN2CCCC2)[C@H](O)c2ccc(O)cc2)cc1` [Compound 425], the IC50 is reported as 3000 to 10000 nM.
`COc1ccc(CN(C(=O)CCCCC(=O)c2ccc(OC)cc2)[C@H](CN2CCCC2)[C@H](O)c2ccc(O)cc2)cc1` [Compound 426] gave an IC50 of 3000 to 10000 nM.
Molecule `COc1ccc(C(=O)CCCCC(=O)N(Cc2ccc(OC(F)F)cc2)[C@H](CN2CCCC2)[C@H](O)c2ccc(O)cc2)cc1` [Compound 427] has an IC50 of 3000 to 10000 nM.
Molecule `COc1ccc(C(=O)CCCCC(=O)N(CC2CCCC2)[C@H](CN2CCCC2)[C@H](O)c2ccc(O)cc2)cc1` [Compound 428] has an IC50 of 3000 to 10000 nM.
`COc1ccc(OCCCN(C(=O)CCCCC(=O)c2ccc(OC)cc2)[C@H](CN2CCCC2)[C@H](O)c2ccc(O)cc2)cc1` [Compound 429] gave an IC50 of 3000 to 10000 nM.
For `COc1ccc(C(=O)CCCCC(=O)N[C@H](CN2CCCC2)[C@H](O)c2ccc(OCCCOc3ccc(C)cc3)cc2)cc1` [Compound 430], the IC50 was ≤ 100 nM.
`COc1ccc(C(=O)CCCCC(=O)N[C@H](CN2CCCC2)[C@H](O)c2ccc(OCCCOc3ccc(F)cc3)cc2)cc1` [Compound 431] was tested, and the IC50 was ≤ 100 nM.
In the case of `COc1ccc(C(=O)CCCCC(=O)N[C@H](CN2CCCC2)[C@H](O)c2ccc(OCCCC(F)(F)F)cc2)cc1` [Compound 432], the IC50 is reported as ≤ 100 nM.
With `COc1ccc(C(=O)CCCCC(=O)N[C@H](CN2CCCC2)[C@H](O)c2ccc(OCCCOc3ccccc3)cc2)cc1` [Compound 433] the IC50 was ≤ 100 nM.
In the case of `CCCCOc1ccc([C@@H](O)[C@@H](CN2CCCC2)NC(=O)CCCCC(=O)c2ccc(OC)cc2)cc1` [Compound 434], the IC50 is reported as ≤ 100 nM.
With `COc1ccc(C(=O)CCCCC(=O)N[C@H](CN2CCCC2)[C@H](O)c2ccc(OCCCCF)cc2)cc1` [Compound 435] the IC50 was ≤ 100 nM.
`COc1ccc(C(=O)CCCCC(=O)N[C@H](CN2CCCC2)[C@H](O)c2ccc(OCCCCC(C)C)cc2)cc1` [Compound 436] was tested, and the IC50 was ≤ 100 nM.
In the case of `COc1ccc(C(=O)CCCCC(=O)N[C@H](CN2CCCC2)[C@H](O)c2ccc(OCCCOc3cccc(C)c3)cc2)cc1` [Compound 437], the IC50 is reported as ≤ 100 nM.
For `COc1ccc(C(=O)CCCCC(=O)N[C@H](CN2CCCC2)[C@H](O)c2ccc(OCCC(C)C)cc2)cc1` [Compound 438], the IC50 was ≤ 100 nM.
`COc1ccc(C(=O)CCCCC(=O)N[C@H](CN2CCCC2)[C@H](O)c2ccc(OC[C@H](C)CO)cc2)cc1` [Compound 439] showed an IC50 of 100 to 1000 nM.
For `COc1ccc(CCOc2ccc([C@@H](O)[C@@H](CN3CCCC3)NC(=O)CCCCC(=O)c3ccc(OC)cc3)cc2)cc1` [Compound 440], the IC50 was ≤ 100 nM.
`CC[C@H](C)COc1ccc([C@@H](O)[C@@H](CN2CCCC2)NC(=O)CCCCC(=O)c2ccc(OC)cc2)cc1` [Compound 441] was tested, and the IC50 was ≤ 100 nM.
For `CCCCCCOc1ccc([C@@H](O)[C@@H](CN2CCCC2)NC(=O)CCCC(=O)c2ccc(OCCOC)cc2)cc1` [Compound 442], the IC50 was ≤ 100 nM.
In the case of `CCCCCCOc1ccc([C@@H](O)[C@@H](CN2CCCC2)NC(=O)CCCCC(=O)c2ccc(OCCOC)cc2)cc1` [Compound 443], the IC50 is reported as ≤ 100 nM.
